Tested on: T. cruzi intracellular amastigotes in H9c2 cells
Assay: Rate-of-Kill (RoK) high-content imaging assay, amastigotes per cell (AM/CELL) and curve descriptors
Format: cell-based, Trypanosoma cruzi
Parameters: key to ME_24h / ME_48h / ME_72h: % reduction in parasite burden (cidal response); t50pct_MCC50 / t50pct_Cmax: unit not given here
Details: for ME_24h: 24h; for ME_48h: 48h; for ME_72h: 72h; for t50%_Cmax / tlag_Cmax / t50pct_Cmax: at Cmax; for ME_24h (%): maximum effect at 24 h; for ME_24h (%) / ME_48h (%) / ME_72h (%): RoK assay; for ME_48h (%): maximum effect at 48 h; for ME_72h (%): maximum effect at 72 h; for ME 24h (maximum effect at 24 hours, intracellular amastigotes): maximum percentage of parasite burden reduction reached by any concentration
How it was run: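 Readouts at each time point are amastigotes per cell and host nuclei count (cytotoxicity), from DRAQ5 high-content imaging. Infection: trypomastigotes on H9c2 at MOI 8 for 18 h. Dosing was 5 μM single point or 11 points, 1/3 steps from 50 μM. Effect scaled between 4 h infected and uninfected controls.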

Compound	ME_24h (figure 5)	ME_48h (figure 5)	ME_72h (figure 5)	MCC50 (RoK curve descriptor) [µM]	MCCE (RoK curve descriptor) [µM]	tlag_Cmax [h]	t50pct_Cmax (figure 5)	tlag_Cmax (figure 5)	t50%_MCC50 (at MCC50) [h]	tlag_MCC50 (at MCC50) [h]	t50pct_MCC50 (at MCC50, figure 5)	tlag_MCC50 (at MCC50, figure 5)	MCCE (figure 5)	MCC50 (figure 5, in µM)	ME_24h (%)	ME_48h (%)	ME_72h (%)	ME 24h (maximum effect at 24 hours, intracellular amastigotes) [%]	AM/CELL NORM (Time 4, sheet figure 4 A)	AM/CELL NORM (Time 24, sheet figure 4 A)	other results
O=C(NCC1CCCCC1)c1cc(=O)c2ccccc2o1 [TCMDC-123621]	36.8077	33.2383	64.4668	5.6	0.6	4.0	72	4	72.0	4.0	72	4	0.6173	5.556	36.8	33.2	64.5	36.8077	–	–	AM/CELL NORM (Time 4, figure 4 A): -5.701; AM/CELL NORM (Time 24, figure 4 A): 30.3317; AM/CELL NORM (Time 48, figure 4 A): 33.2183; AM/CELL NORM (Time 72, figure 4 A): 64.4668; t50%_Cmax: 72.0 h
Cl.O=c1cc(NCCCNC2CCOc3c(I)cc(Cl)cc32)[nH]c2ccccc12 (stereo not drawn) [TCMDC-139489]	37.6706	64.7005	58.8587	5.6	0.2	4.0	48	4	72.0	4.0	72	4	0.2058	5.556	37.7	64.7	58.9	37.6706	–	–	ME (maximum effect) in RoK assay (in words): high ME at 24 hours and 72 hours; tlag (in words): short tlag times; AM/CELL NORM (Time 4, figure 4 A): 5.191; AM/CELL NORM (Time 24, figure 4 A): 37.6706; AM/CELL NORM (Time 48, figure 4 A): 64.7005; AM/CELL NORM (Time 72, figure 4 A): 58.8587; t50%_Cmax: 48.0 h
Cc1cccc(N2CCCN(Cc3c[nH]c4ccccc34)CC2)n1 [TCMDC-143185]	34.1143	65.81	87.1854	1.9	0.6	4.0	48	4	48.0	4.0	48	4	0.6173	1.852	34.1	65.8	87.2	84.3328	–	–	AM/CELL NORM (Time 4, figure 4 A): -11.6177; AM/CELL NORM (Time 24, figure 4 A): 35.9083; AM/CELL NORM (Time 48, figure 4 A): 66.1558; AM/CELL NORM (Time 72, figure 4 A): 81.0849; t50%_Cmax: 48.0 h
O=C(NCCc1cccnc1)c1ccc(-c2ccccc2F)o1 [TCMDC-143190]	-188.225	-99.3488	47.7023	5.6	0.2	24.0	72	24	72.0	24.0	72	48	0.2058	27.7778	-188.2	-99.4	47.7	-116.413	10.7478	-116.413	AM/CELL NORM (Time 48, sheet figure 4 A): -106.707; AM/CELL NORM (Time 72, sheet figure 4 A): 59.1013; t50%_Cmax: 72.0 h
COc1ccc(NS(=O)(=O)c2cc(-c3cc(C)[nH]n3)ccc2C)cc1OC [TCMDC-143194]	-114.917	-675.674	-796.23	16.7	1.2	41.3	72	41.3333	72.0	24.0	72	56	1.237	38.8889	-114.9	-675.7	-796.2	24.095	–	–	AM/CELL NORM (Time 4, figure 4 A): 17.4808; AM/CELL NORM (Time 24, figure 4 A): 13.7763; AM/CELL NORM (Time 48, figure 4 A): 30.9676; AM/CELL NORM (Time 72, figure 4 A): 53.1796
O=S(=O)(c1cccc(CSc2nnc(-c3ccc4c(c3)OCO4)o2)c1)N1CCOCC1 [TCMDC-143197]	-16.5303	13.4442	33.635	–	0.07	4.0	72	4	–	–	72	72	0.06859	–	-16.5	13.4	33.6	-16.5303	-18.4264	-16.5303	AM/CELL NORM (Time 48, sheet figure 4 A): -6.567; AM/CELL NORM (Time 72, sheet figure 4 A): 29.0194; MCC50 (figure 5): 50 µM
CC1CN(S(=O)(=O)c2ccc(NC(=O)c3cc(C4CC4)nc4c3cnn4C(C)C)cc2)CC(C)O1 (stereo not drawn) [TCMDC-143200]	2.192	1.8894	56.9286	1.9	1.9	4.0	72	4	72.0	24.0	72	24	1.852	1.852	2.2	1.9	56.9	2.192	-14.9286	2.192	AM/CELL NORM (Time 48, sheet figure 4 A): -23.2452; AM/CELL NORM (Time 72, sheet figure 4 A): 15.376
O=C(NCCc1cccnc1)c1csc(-c2ccccc2)n1 [TCMDC-143203]	-222.428	-89.2348	54.0545	5.6	0.6	24.0	72	24	72.0	24.0	72	48	0.6173	27.7778	-222.4	-89.2	54.1	-177.566	2.597	-179.486	AM/CELL NORM (Time 48, sheet figure 4 A): -77.3027; AM/CELL NORM (Time 72, sheet figure 4 A): 80.8727; t50%_Cmax: 72.0 h
CC(=O)Nc1nc(-c2cc(C)ccc2C)c(C)s1 [TCMDC-143207]	9.377	15.7339	56.2605	5.6	0.2	4.0	72	4	72.0	4.0	72	4	0.2058	5.556	9.4	15.7	56.3	9.377	-2.089	9.377	AM/CELL NORM (Time 48, sheet figure 4 A): 6.875; AM/CELL NORM (Time 72, sheet figure 4 A): 36.4934
Cn1nccc1-c1cc(OC(CN)c2ccccc2)cnc1-c1ccco1.O=C(O)C(F)(F)F.O=C(O)C(F)(F)F (stereo not drawn) [TCMDC-143221]	-243.084	-97.9255	30.5438	–	1.9	24.0	72	24	–	–	72	72	1.852	–	-243.1	-97.9	30.5	-243.084	21.0268	-310.615	AM/CELL NORM (Time 48, sheet figure 4 A): -207.349; AM/CELL NORM (Time 72, sheet figure 4 A): 0.471; MCC50 (figure 5): 50 µM
CS(=O)(=O)c1ccc(CC(=O)Nc2nc(-c3ccc(Cl)s3)cs2)cc1 [TCMDC-143224]	-50.7576	-167.826	53.6478	16.7	1.9	48.0	72	48	72.0	48.0	72	48	1.852	16.6667	-50.8	-167.8	53.7	-50.7576	-3.952	-61.4068	AM/CELL NORM (Time 48, sheet figure 4 A): -205.24; AM/CELL NORM (Time 72, sheet figure 4 A): -9.589
